Assay results published in article PMC8151276, “An Integrated Approach toward NanoBRET Tracers for Analysis of GPCR Ligand Engagement” (Molecules, 2021).

Target: T1, TACR1 (Homo sapiens, UniProt P25103)
T1 construct: purchased Promega (in-house HiBiT-GPCR construct library, NanoBRET)
Test: NanoBRET screen HiBiT-TACR1 in HEK293
Format: binding
Experimental: Each tracer candidate was screened across the entire library of HiBiT-GPCR constructs using NanoBRET as the detection modality. As depicted in Figure 4A, the specificity of interactions was evaluated through decrease in BRET due to competitive displacement of a bound tracer by excess parental compound. Each tracer was analyzed for binding to each HiBiT-GPCR fusion in the absence and in the presence of competing parental compound. Briefly, HEK293 cells were transfected with HiBiT-GPCR constructs diluted into promoterless DNA to reduce expression and maximize translocation to the cell surface. Each tracer candidate was then screened at concentrations of 1 μM and 0.1 μM across cells expressing these fusions. Cells were treated for 1.5 h with tracer either alone or in the presence of 20 μM competing parental compound (i.e., control). BRET was measured upon addition of purified LgBiT and subsequent complementation with HiBiT genetically fused to a GPCR. The specificity of interactions was assessed through a decrease in BRET signal due to competitive displacement of the bound tracer. To further gauge the robustness of these interactions, the fold response over the control (i.e., BRETtracer/BRETcontrol) was calculated. We chose a 1.5-fold response, which translates to ≥7-fold signal over noise as the minimal threshold required to score an interaction as positive.
HiBiT-GPCR DNA constructs were diluted in 10 mM Tris pH 8 to a final concentration of 0.01 μg/μL, arrayed in 96-well plates and stored at −20 °C. For transfection, HEK293 cells were suspended in Opti-MEM (without phenol red) supplemented with 2% fetal bovine serum (Seradigm) and 100 units/mL penicillin–streptomycin (Gibco) at a final concentration of 220,000 cells/mL and dispensed into white 96-well plates at 90 μL/well. Subsequent transfections and screens were carried using an Agilent Bravo Automated Liquid Handling Platform. First, the 96-well HiBiT DNA arrays were diluted 25-fold in Opti-MEM (without serum or phenol red) to a final concentration of 0.0004 μg/μL and 20 μL of the diluted DNAs were transferred into new 96-well plates. Next, promoterless carrier DNA (1 μg/μL) was diluted 25-fold (0.04 μg/μL) and then dispensed into the diluted arrays at 20 μL/well. Following brief mixing, Viafect transfection reagent (Promega) diluted 16-fold into Opti-MEM was dispensed into the plates at 40 μL/well. After mixing by pipetting, plates were incubated for 10 min on the pipetting station deck. The DNA-transfection reagent complexes were then added to plates containing cells. To facilitate the screen, 10 μL of DNA-transfection reagent complexes were added in duplicates to the top 4 and bottom 4 rows, resulting in two identical 48-well arrays per plate. Plates with transfected cells were incubated for 18–20 h at 37 °C/5% CO2. A screen of each tracer across the entire library using two different concentrations requires duplicate plates of transfected cells. Depending on the number of tracers being screened, transfections can be scaled up using the same ratios. The next day, for each tracer, four 20× screening solutions in tracer dilution buffer (Promega) were prepared: two duplicates at final concentration of 20 μM and two duplicates at a final concentration of 2 μM. […] The four resulting solutions were diluted 4-fold in Opti-MEM without serum or phenol red to generate 5× solutions (5 µM and 0.5 µM tracer +/− 100 μM competing compound). To screen the library, a BioTek MultiFlo FX liquid dispenser was used to dispense 22.5 µL of tracer solution to the top 4 rows and 22.5 µL tracer + competing compound solution to the 4 bottom rows. Plates were briefly mixed on an orbital shaker and incubated for 1.5 h at room temperature. […] Plates were briefly mixed on an orbital shaker and incubated for 15 min to allow complementation.

T1 sequence (P25103 whole entry): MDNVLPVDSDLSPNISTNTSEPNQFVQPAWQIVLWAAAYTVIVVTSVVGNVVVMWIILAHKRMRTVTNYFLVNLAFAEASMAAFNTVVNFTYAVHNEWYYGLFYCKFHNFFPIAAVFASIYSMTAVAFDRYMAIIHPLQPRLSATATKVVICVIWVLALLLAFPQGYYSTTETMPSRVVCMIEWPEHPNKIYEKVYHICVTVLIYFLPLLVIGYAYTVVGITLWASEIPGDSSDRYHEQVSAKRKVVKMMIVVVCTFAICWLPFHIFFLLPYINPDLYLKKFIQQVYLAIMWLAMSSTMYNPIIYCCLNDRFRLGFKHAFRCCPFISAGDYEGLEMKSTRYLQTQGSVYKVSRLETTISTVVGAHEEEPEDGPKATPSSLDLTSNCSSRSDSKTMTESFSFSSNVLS

Row | SMILES | NanoBRET Fold Response (TACR1, tracer 0.1μM) | NanoBRET Fold Response (TACR1, tracer 1μM) | other results
1 | CN1CCN(C2=Nc3cc(Cl)ccc3Nc3ccc(CNC(=O)CCOCCOCCOCCOCCNC(=O)CCc4ccc5n4[B-](F)(F)[N+]4=C(c6ccc[nH]6)C=CC4=C5)cc32)CC1 [Clozapine-b-2-NB590] | – | – | NanoBRET Fold Response (TACR1, 0.1μM tracer): 1.06; NanoBRET Fold Response (TACR1, 1μM tracer): 1.08
2 | CN(C)CCC=C1c2ccccc2CCc2ccc(C(=O)NCCNC(=O)CCOCCOCCOCCOCCNC(=O)CCc3ccc4n3[B-](F)(F)[N+]3=C(c5ccc[nH]5)C=CC3=C4)cc21 [Amitriptyline-b-2-NB590] | – | – | NanoBRET Fold Response (tracer at 0.1μM, listed as amitriptyline-b-2-NB590): 1.45; NanoBRET Fold Response (tracer at 1μM, listed as amitriptyline-b-2-NB590): 1.07
3 | CCOC(=O)c1cc(C#N)c(N2CCC(C(=O)NS(=O)(=O)Cc3ccccc3/C=C/C(=O)NCCNC(=O)CCc3ccc4n3[B-](F)(F)[N+]3=C(c5ccc[nH]5)C=CC3=C4)CC2)nc1C [AZD1283-1-NB590] | – | – | NanoBRET Fold Response (TACR1, 0.1μM): 1.06; NanoBRET Fold Response (TACR1, 1μM): 1.09
4 | CC(C)N(CC[C@H](c1ccccc1)c1cc(CCNC(=O)CCOCCOCCOCCOCCNC(=O)CCc2ccc3n2[B-](F)(F)[N+]2=C(c4ccc[nH]4)C=CC2=C3)ccc1O)C(C)C [Tolterodine-2-NB590] | 1.16 | 1.01 | –
5 | CC(C)N(CC[C@H](c1ccccc1)c1cc(CCNC(=O)c2ccc(CNC(=O)CCc3ccc4n3[B-](F)(F)[N+]3=C(c5ccc[nH]5)C=CC3=C4)cc2)ccc1O)C(C)C [Tolterodine-BZ-NB590] | 0.93 | 1.01 | –
6 | O=C(CCOCCOCCOCCOCCNC(=O)CCc1ccc2n1[B-](F)(F)[N+]1=C(c3ccc[nH]3)C=CC1=C2)NCCCN1CCN(C2=Nc3ccccc3Oc3ccc(Cl)cc32)CC1 [Loxapine-a-2-NB590] | 1.06 | 1.12 | –
7 | CN1CCN(C2=Nc3cc(Cl)ccc3N(CC(=O)NCCOCCOCCOCCOCCNC(=O)CCc3ccc4n3[B-](F)(F)[N+]3=C(c5ccc[nH]5)C=CC3=C4)c3ccccc32)CC1 [Clozapine-c-2-NB590] | – | – | NanoBRET Fold Response (TACR1, 0.1μM tracer): 0.99; NanoBRET Fold Response (TACR1, 1μM tracer): 0.96
8 | CN(C)CCC=C1c2ccccc2CCc2ccc(C(=O)NCCNC(=O)CCOCCOCCOCCOCCNC(=O)CCc3ccc4n3[B-](F)(F)[N+]3=C(c5ccc[nH]5)C=CC3=C4)cc21 [Amitriptyline-a-2-NB590] | – | – | NanoBRET Fold Response (tracer at 0.1μM): 1.17; NanoBRET Fold Response (tracer at 1μM): 1.18
9 | Cc1nc2n(c(=O)c1CCN1CCC(c3noc4cc(F)ccc34)CC1)CCCC2OC(=O)NCCOCCOCCOCCOCCNC(=O)CCc1ccc2n1[B-](F)(F)[N+]1=C(c3ccc[nH]3)C=CC1=C2 (stereo not shown) [Risperidone-2-NB590] | 1.10 | 0.95 | –
10 | COc1ccc2[nH]c(-c3ccc(CNC(=O)CCOCCOCCOCCOCCNC(=O)CCc4ccc5n4[B-](F)(F)[N+]4=C(c6ccc[nH]6)C=CC4=C5)cc3)c(CCNC(C)=O)c2n1 [AzomelatoninICO9-2-NB590] | – | – | NanoBRET Fold Response (0.1μM tracer): 1.08; NanoBRET Fold Response (1μM tracer): 0.85
11 | COc1ccccc1N1CCN(CCCCN2C(=O)c3ccc(CNC(=O)CCOCCOCCOCCOCCNC(=O)CCc4ccc5n4[B-](F)(F)[N+]4=C(c6ccc[nH]6)C=CC4=C5)cc3C2=O)CC1 [NAN-190-2-NB590] | 0.98 | – | –
12 | O=C(CCc1ccc2n1[B-](F)(F)[N+]1=C(c3ccc[nH]3)C=CC1=C2)NCCOCCOCCNC(=O)OCCOCCN1CCN(C2=Nc3ccccc3Sc3ccccc32)CC1 [Quetiapine-a-2-NB590] | 0.97 | 0.83 | –
13 | O=C(CCOCCOCCOCCOCCNC(=O)CCc1ccc2n1[B-](F)(F)[N+]1=C(c3ccc[nH]3)C=CC1=C2)NCCCN1CCN(C2=Nc3cc(Cl)ccc3Nc3ccccc32)CC1 [Clozapine-a-2-NB590] | – | – | NanoBRET Fold Response (TACR1, 0.1μM tracer): 1.15; NanoBRET Fold Response (TACR1, 1μM tracer): 1.01
14 | N#CN=C(NCCCOc1cccc(CN2CCCCC2)c1)NCCNC(=O)CCOCCOCCOCCOCCNC(=O)CCc1ccc2n1[B-](F)(F)[N+]1=C(c3ccc[nH]3)C=CC1=C2 [Aminopotentidine-2-NB590] | 1.01 | 1.02 | –
15 | O=C(CCc1ccc2n1[B-](F)(F)[N+]1=C(c3ccc[nH]3)C=CC1=C2)NCc1ccc(C(=O)NCCOCCOCCNCC(O)COc2cccc3ccccc23)cc1 (stereo not shown) [Propranolol-3-NB590] | – | – | NanoBRET Fold Response (TACR1, 0.1μM): 0.99; NanoBRET Fold Response (TACR1, 1μM): 1.00
16 | O=C(CCc1ccc2n1[B-](F)(F)[N+]1=C(c3ccc[nH]3)C=CC1=C2)NCc1ccc(C(=O)NCCOCCC(=O)N[C@@H]2CC[C@@]3(O)[C@H]4Cc5ccc(O)c6c5[C@@]3(CCN4CC3CC3)[C@H]2O6)cc1 [Naltrexone-3-NB590] | 1.06 | 0.90 | –
17 | COc1ccccc1N1CCN(CCCCN2C(=O)c3ccc(CNC(=O)CCOCCNC(=O)c4ccc(CNC(=O)CCc5ccc6n5[B-](F)(F)[N+]5=C(c7ccc[nH]7)C=CC5=C6)cc4)cc3C2=O)CC1 [NAN-190-3-NB590] | 1.13 | 1.11 | –
18 | Cc1cc2c(s1)Nc1ccccc1N=C2N1CCN(CCCNC(=O)CCOCCOCCOCCOCCNC(=O)CCc2ccc3n2[B-](F)(F)[N+]2=C(c4ccc[nH]4)C=CC2=C3)CC1 [Olanzapine-a-2-NB590] | 1.04 | 0.92 | –
19 | COc1ccc2c(n1)c(CCNC(C)=O)cn2CCNC(=O)CCc1ccc2n1[B-](F)(F)[N+]1=C(c3ccc[nH]3)C=CC1=C2 [Azamelatonin-1-NB590] | – | – | NanoBRET Fold Response (0.1μM tracer): 0.98; NanoBRET Fold Response (1μM tracer): 0.89
